# Measured values as given in patent US4724233A, “Therapeutical application of phosphonylmethoxyalkyl adenines” (Stichting Rega VZW, priority 1985, dated 1988).
# Like-named read-outs stand apart in the source and are kept apart here.
# Tests used:
# [1] = test system: CMV (strain) AD 169; assay: inhibition of CMV strain AD 169 in HEL cells; format: cell-based, cytomegalovirus; conditions: Human betaherpesvirus 5; Table 5; CMV AD 169, HEL cells; read-out: MIC50
# [2] = test system: HSV-1 (strain) McIntyre; assay: inhibition of cytopathic effect of HSV-1 strain McIntyre; format: cell-based, herpes simplex virus type 1; conditions: Human alphaherpesvirus 1; Table 4; HSV-1 McIntyre, PRK cells; read-out: MIC50
# [3] = test system: Herpes simplex 2 (G); assay: inhibition of cytopathic effect of herpes simplex 2 (G); format: cell-based, herpes simplex virus type 2; conditions: Human alphaherpesvirus 2, PRK, PRK cells, read-out: MIC50
# [4] = test system: HSV-1 (strain) TK^- C1101; assay: inhibition of cytopathic effect of HSV-1 TK- strain C1101; format: cell-based, herpes simplex virus type 1; conditions: Human alphaherpesvirus 1, PRK, read-out: MIC50
# [5] = test system: TK^- herpes viruses; conditions: Prusoff et al.; cited from earlier work
# [6] = test system: VZV (strain) TK^- YSR; assay: microbe, parasite or virus in culture; format: cell-based, varicella-zoster virus; conditions: Human alphaherpesvirus 3, HEL, read-out: MIC50
# [7] = test system: HSV-2 (strain) Lyons; assay: inhibition of cytopathic effect of HSV-2 strain Lyons; format: cell-based, herpes simplex virus type 2; conditions: Human alphaherpesvirus 2; Table 4; HSV-2 Lyons, PRK cells; read-out: MIC50
# [8] = test system: CMV (strain) Davis; assay: inhibition of CMV strain Davis in HEL cells; format: cell-based, cytomegalovirus; conditions: Human betaherpesvirus 5, Table 5, read-out: MIC50
# [9] = test system: VZV (strain) YS; assay: microbe, parasite or virus in culture; format: cell-based, varicella-zoster virus; conditions: Human alphaherpesvirus 3, Table 5, HEL cells, read-out: MIC50
# [10] = test system: HSV-2 (strain) 196; assay: inhibition of cytopathic effect of HSV-2 strain 196; format: cell-based, herpes simplex virus type 2; conditions: Human alphaherpesvirus 2; Table 4; HSV-2 196, PRK cells; read-out: MIC50
# [11] = test system: HSV-1 (strain) F; assay: inhibition of cytopathic effect of HSV-1 strain F; format: cell-based, herpes simplex virus type 1; conditions: Human alphaherpesvirus 1; Table 4; HSV-1 F, PRK cells; read-out: MIC50
# [12] = test system: HSV-1 (strain) TK^- B2006; assay: inhibition of cytopathic effect of HSV-1 TK- strain B2006; format: cell-based, herpes simplex virus type 1; conditions: Human alphaherpesvirus 1, PRK, read-out: MIC50
# [13] = test system: VZV (strain) OKa; assay: microbe, parasite or virus in culture; format: cell-based, varicella-zoster virus; conditions: Human alphaherpesvirus 3, HEL, read-out: MIC50
# [14] = test system: VZV (strain) TK^- 07-1; assay: microbe, parasite or virus in culture; format: cell-based, varicella-zoster virus; conditions: Human alphaherpesvirus 3, HEL, read-out: MIC50
# [15] = test system: Herpes simplex I (KOS); assay: inhibition of cytopathic effect of herpes simplex 1 (KOS); format: cell-based, herpes simplex virus type 1; conditions: Human alphaherpesvirus 1, PRK cells, read-out: MIC50
# [16] = test system: Coxsackie B4; assay: inhibition of cytopathic effect of Coxsackie B4; format: cell-based; conditions: Enterovirus B, B4; Table 3; Vero B, HeLa cells; read-out: MIC50
# [17] = test system: Moloney sarcoma; assay: inhibition of Moloney sarcoma virus; format: cell-based, Moloney mouse sarcoma virus; conditions: Mus musculus; Table 3; MO cells; read-out: MIC50
# [18] = test system: Vesicular stomatitis; assay: microbe, parasite or virus in culture; format: cell-based; conditions: read-out: MIC50
# [19] = test system: vaccinia virus (VV); format: cell-based; conditions: 100 μg/ml, PRK cells, average of two determinations
# [20] = test system: Polio 1; assay: microbe, parasite or virus in culture; format: cell-based; conditions: HeLa, read-out: MIC50
# [21] = test system: Sindbis; assay: inhibition of cytopathic effect of Sindbis; format: cell-based; conditions: Table 3; Vero B cells; read-out: MIC50
# [22] = antimetabolic activity: incorporation of 3H-labeled precursors into primary rabbit kidney cells; conditions: rabbit, prk cells
# [23] = test system: Measles; assay: inhibition of cytopathic effect of measles; format: cell-based; conditions: Measles morbillivirus; Table 3; Vero Flow cells; read-out: MIC50
# [24] = test system: Vaccinia; assay: microbe, parasite or virus in culture; format: cell-based; conditions: Orthopoxvirus vaccinia, PRK, read-out: MIC50
# [25] = test system: herpes simplex virus type 1 (HSV-1) (strain KOS); format: cell-based; conditions: 100 μg/ml, PRK cells
# [26] = in vitro; conditions: rabbit, prk cells
# [27] = test system: Parainfluenza 3; assay: inhibition of cytopathic effect of parainfluenza 3; format: cell-based; conditions: Table 3; Vero B cells; read-out: MIC50
# [28] = test system: Reovirus; assay: inhibition of cytopathic effect of reovirus; format: cell-based; conditions: Reovirus sp.; Table 3; Vero B cells; read-out: MIC50
structure (smiles),measurement,setting,value
"O=c1[nH]c(=O)n([C@H]2C[C@H](O)[C@@H](CO)O2)cc1/C=C/Br [BVDU, (E)-5-(2-bromovinyl)-2'-deoxyuridine, reference compound]",EC50,[1],200 µg/mL
same,EC50,[2],0.02 µg/mL
same,EC50,"[3]; Table 4, HSV-2 G",2 µg/mL
same,EC50,[4],70 µg/mL
same,activity against TK^- herpes viruses (in words),[5],inactive
same,EC50,[6],> 400 µg/mL
same,EC50,[7],7 µg/mL
same,EC50,[8],300 µg/mL
same,EC50,[9],0.006 µg/mL
same,EC50,[10],70 µg/mL
same,EC50,[11],0.02 µg/mL
same,EC50,[12],> 200 µg/mL
same,EC50,[13],0.007 µg/mL
same,EC50,[14],> 400 µg/mL
same,EC50,"[15]; Table 4, HSV-1 KOS",0.02 µg/mL
"Nc1ncnc2c1ncn2C[C@H](O)CO [(S)-DHPA, 9-(S)-(2,3-dihydroxypropyl)adenine, reference compound]",EC50,[3]; Table 3,> 400 µg/mL
same,EC50,[16],130 µg/mL
same,EC50,[17],> 200 µg/mL
same,EC50,[18],20 µg/mL
same,Titer of VV,[19]; 1 h,2.0 log10 PFU/ml
same,Titer of VV,[19]; 24 h,4.7 log10 PFU/ml
same,Titer of VV,[19]; 48 h,5.2 log10 PFU/ml
same,Titer of VV,[19]; 72 h,5.5 log10 PFU/ml
same,EC50,[20],> 400 µg/mL
same,EC50,[21],> 400 µg/mL
same,IC50,"[22]; ID50 Leu incorporation, (3H-4,5)Leu",> 400 µg/mL
same,IC50,"[22]; ID50 Urd incorporation, (3H-5)Urd",> 400 µg/mL
same,IC50,"[22]; ID50 dThd incorporation, (3H-methyl) dThd",350 µg/mL
same,IC50,"[22]; ID50 dUrd incorporation, (3H-1',2')dUrd",> 400 µg/mL
same,EC50,[23],20 µg/mL
same,EC50,[24],50 µg/mL
same,Titer of HSV-1,[25]; 1 h,1.3 log10 PFU/ml
same,Titer of HSV-1,[25]; 24 h,6.5 log10 PFU/ml
same,Titer of HSV-1,[25]; 48 h,6.9 log10 PFU/ml
same,Titer of HSV-1,[25]; 72 h,6.9 log10 PFU/ml
same,MCC at 72 h,[26],> 400 µg/mL
same,EC50,[27],25 µg/mL
same,EC50,[28],100 µg/mL
same,EC50,[15]; Table 3,> 400 µg/mL
"O=c1[nH]c(=O)n([C@H]2C[C@H](O)[C@@H](CO)O2)cc1I [IDU, 5-iodo-2'-deoxyuridine, reference compound]",EC50,[2],0.2 µg/mL
same,EC50,"[3]; Table 4, HSV-2 G",0.2 µg/mL
same,EC50,[7],0.2 µg/mL
same,EC50,[10],2 µg/mL
same,EC50,[11],0.2 µg/mL
same,EC50,"[15]; Table 4, HSV-1 KOS",0.2 µg/mL
